The text below walks through data of patent US20250289787A1, “HERBICIDAL 2-OXO-NICOTINIC ACID DERIVATIVES” (SYNGENTA CROP PROTECTION AG, priority 2022, published 2025).

Common to all, as to type: in vivo
Experiment [1] relates to Amaranthus palmeri (AMAPA). Kind of experiment: Pre-emergence test, herbicidal damage. Conditions: 1000 g/ha unless otherwise stated, evaluated after 13 days, five-point scale.
Experiment [2] relates to Amaranthus retoflexus (AMARE). Kind of experiment: Pre-emergence test, herbicidal damage. Conditions: 1000 g/ha unless otherwise stated, evaluated after 13 days, five-point scale.
The test system of experiment [3] is Echinochloa crus-galli (ECHCG). Kind of experiment: Pre-emergence test, herbicidal damage. The settings on record: 1000 g/ha unless otherwise stated, evaluated after 13 days, five-point scale.
Experiment [4] has as its system Ipomoea hederacea (IPOHE). Kind of experiment: Pre-emergence test, herbicidal damage. The arrangement: key: 5=81-100%; 4=61-80%; 3=41-60%; 2=21-40%; 1=1-20%; 0=no damage to the plant; -=not tested. The settings on record: 1000 g/ha unless otherwise stated, evaluated after 13 days, five-point scale.
Experiment [5] has as its system Setaria faberi (SETFA). Kind of experiment: Pre-emergence test, herbicidal damage. Set-up: key: 5=81-100%; 4=61-80%; 3=41-60%; 2=21-40%; 1=1-20%; 0=no damage to the plant; -=not tested. Conditions: 1000 g/ha unless otherwise stated, evaluated after 13 days, five-point scale.
Experiment [6] concerns Ipomoea hederacea (IPOHE). Briefly: Post-emergence test, herbicidal damage. The settings on record: sprayed after 8 days cultivation, 1000 g/ha unless otherwise stated, evaluated after 13 days, five-point scale. The arrangement: key: 5=81-100%; 4=61-80%; 3=41-60%; 2=21-40%; 1=1-20%; 0=no damage to the plant; -=not tested. The method, boiled down:
(§1)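 Herbicidal effect is expressed as a score from 0 (no damage) to 5 (81–100% damage), assessed 13 days after spraying. Compound at 1000 g/ha in acetone/water with 0.5% Tween 20 is applied to pots kept at 24 °C/16 °C, 14 h photoperiod.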

Experiment [7] concerns Setaria faberi (SETFA). Kind of experiment: Post-emergence test, herbicidal damage. Set-up: key: 5=81-100%; 4=61-80%; 3=41-60%; 2=21-40%; 1=1-20%; 0=no damage to the plant; -=not tested. The settings on record: sprayed after 8 days cultivation, 1000 g/ha unless otherwise stated, evaluated after 13 days, five-point scale. Summed up:
as §1

For experiment [8], the system named is Amaranthus retoflexus (AMARE). Briefly: Post-emergence test, herbicidal damage. The arrangement: key: 5=81-100%; 4=61-80%; 3=41-60%; 2=21-40%; 1=1-20%; 0=no damage to the plant; -=not tested. The settings on record: sprayed after 8 days cultivation, 1000 g/ha unless otherwise stated, evaluated after 13 days, five-point scale. The method, boiled down: as §1
Experiment [9] concerns Echinochloa crus-galli (ECHCG). Briefly: Post-emergence test, herbicidal damage. Set-up: key: 5=81-100%; 4=61-80%; 3=41-60%; 2=21-40%; 1=1-20%; 0=no damage to the plant; -=not tested. Conditions: sprayed after 8 days cultivation, 1000 g/ha unless otherwise stated, evaluated after 13 days, five-point scale. The method, boiled down: as §1
The subject of experiment [10] is Amaranthus palmeri (AMAPA). Kind of experiment: Post-emergence test, herbicidal damage. The arrangement: key: 5=81-100%; 4=61-80%; 3=41-60%; 2=21-40%; 1=1-20%; 0=no damage to the plant; -=not tested. The settings on record: sprayed after 8 days cultivation, 1000 g/ha unless otherwise stated, evaluated after 13 days, five-point scale. Summed up: as §1
Experiment [11] relates to Zea mays (ZEAMX). Kind of experiment: Post-emergence test, herbicidal damage. The settings on record: sprayed after 8 days cultivation, 1000 g/ha unless otherwise stated, evaluated after 13 days, five-point scale. Set-up: key: 5=81-100%; 4=61-80%; 3=41-60%; 2=21-40%; 1=1-20%; 0=no damage to the plant; -=not tested. Summed up: as §1
Experiment [12] deals with Zea mays (ZEAMX). Briefly: Pre-emergence test, herbicidal damage. Set-up: key: 5=81-100%; 4=61-80%; 3=41-60%; 2=21-40%; 1=1-20%; 0=no damage to the plant; -=not tested. Conditions: 1000 g/ha unless otherwise stated, evaluated after 13 days, five-point scale.

With `Cc1[nH]c(=O)c(C(=O)O)c(-c2ccc(Cl)c(Cl)c2)c1Br` [Compound 1, 5-bromo-4-(3,4-dichlorophenyl)-6-methyl-2-oxo-1H-pyridine-3-carboxylic acid], the results for the “percentage damage caused to the plant, AMAPA” value in experiment [1] and in [10] were 3 (3=41-60%) and 5 (5=81-100%), respectively. Moreover, the figures for the “percentage damage caused to the plant, AMARE” value in [2] and in experiment [8] were 2 (2=21-40%) and 5 (5=81-100%), respectively. For the same compound, the “percentage damage caused to the plant, ECHCG” value is 1 (1=1-20%) in experiment [3] and 0 in experiment [9]. Besides, the “percentage damage caused to the plant, IPOHE” value in experiment [4] is recorded as 0; in experiment [6], 1 (1=1-20%). Moreover, the “percentage damage caused to the plant, SEFTA” value in the experiment with Setaria faberi (SETFA) [5] is listed as 0; in the experiment with Setaria faberi (SETFA) [7], 1 (1=1-20%). Moreover, the “percentage damage caused to the plant, ZEAMX” value with Zea mays (ZEAMX) [11] was 1 (1=1-20%); in the experiment on Zea mays (ZEAMX) [12], 0.
